Data set [1] in a line: Drug level in BALB/c mouse plasma at 50 mg/kg, po after 4 hrs. Set-up: dose 50 mg/kg, route oral. The format is ADME, organism-based.
Data set [2] concerns the target Receptor tyrosine-protein kinase erbB-2 (Homo sapiens, UniProt P04626). As to the kind of experiment: Inhibition of human HER2.
The target in data set [3] is Epidermal growth factor receptor (Homo sapiens, UniProt P00533).
The subject of data set [4] is NCI-N87. As to the kind of experiment: Antiproliferative activity against human N87 cells. The format is functional, cell-based.
Another data set has as its system HT-29. The experiment in a line: Antiproliferative activity against human HT29 cells.
A short description of data set [5]: Metabolic stability in mouse liver microsomes at 3 uM in presence of NADPH after 10 min. The class given is ADME, Microsome. A general note: Liver microsomes are a subcellular fraction often used to study metabolism.
Data set [6] can be described thus: Cmax in BALB/c mouse at 90 mg/kg, po. The conditions noted are these: in vivo. The format is ADME, organism-based. Set-up: dose 90 mg/kg, route oral.
Data set [7] in a line: Tmax in BALB/c mouse at 90 mg/kg, po. The format is ADME, organism-based. Set-up: dose 90 mg/kg, route oral. The conditions noted are these: in vivo.
Data set [8] in a line: AUC in BALB/c mouse at 90 mg/kg, po. Set-up: dose 90 mg/kg, route oral. Particulars: plasma. The format is ADME, organism-based.
Data set [9] in a line: Half life in BALB/c mouse at 10 mg/kg, iv. The class given is ADME, organism-based. Particulars: in vivo. Also noted: dose 10 mg/kg, route intravenous.
Data set [10] is described as follows: Mean residence time in BALB/c mouse at 10 mg/kg, iv. The class given is ADME, organism-based. Also noted: dose 10 mg/kg, route intravenous. The conditions noted are these: in vivo.
The nature of data set [11]: Plasma clearance in BALB/c mouse at 10 mg/kg, iv. Set-up: dose 10 mg/kg, route intravenous. The format is ADME, organism-based.
The nature of data set [12]: Volume of distribution at steady state in BALB/c mouse at 10 mg/kg, iv. The format is ADME, organism-based. Also noted: dose 10 mg/kg, route intravenous. The conditions noted are these: in vivo, read-out: Vss.
The nature of data set [13]: Oral bioavailability in BALB/c mouse at 90 mg/kg, po. The format is ADME, organism-based. The conditions noted are these: in vivo.
Another data set relates to Plasma. As to the kind of experiment: Fraction unbound ligand in BALB/c mouse plasma. The class given is ADME, cell-free.
Data set [14] in a line: Aqueous solubility at pH 3.9. The format is physicochemical. Particulars: buffer.
Data set [15] is described as follows: Aqueous solubility in phosphate buffer at pH 7.5. The format is physicochemical.
Data set [16] relates to NCI-N87. As to the kind of experiment: Antitumor activity against human N87 cells xenografted in athymic mouse at 90 mg/kg, po twice daily after 14 days. The conditions noted are these: 336 h, read-out: TGI.
The nature of data set [17]: Antitumor activity against human GEO cells xenografted in athymic mouse at 90 mg/kg, po twice daily after 14 days. The conditions noted are these: 336 h, read-out: TGI.
Data set [18] in a line: Toxicity in human N87 cells xenografted athymic mouse. The format is organism-based, NCI-N87. Particulars: in vivo. Background: In xenograft studies the graft and the host belong to different species.
A short description of data set [19]: Mortality in human N87 cells xenografted athymic mouse at 180 mg/kg, po. The format is organism-based, NCI-N87. Set-up: dose 180 mg/kg, route oral. Particulars: in vivo, read-out: Activity.
Data set [20] deals with NCI-N87. The experiment in a line: animal or person. The conditions noted are these: Mus musculus, NCI-N87, po, 336 h, read-out: TGI.
Description: (§1) Antitumor activity against human N87 cells xenografted in athymic mouse at 135 mg/kg, po twice daily after 14 days
The test system of data set [21] is NCI-N87. As to the kind of experiment: animal or person. Particulars: Mus musculus, NCI-N87, po, 336 h, read-out: TGI. The source holds these as a separate data set.
Description: Antitumor activity against human N87 cells xenografted in athymic mouse at 180 mg/kg, po twice daily after 14 days
In data set [22] the test system is NCI-N87. As to the kind of experiment: animal or person. The conditions noted are these: Mus musculus, NCI-N87, po, 336 h, read-out: TGI. This is another data set of the same source.
Description: as §1
For another data set, the system named is A2780. The experiment in a line: Antiproliferative activity against human A2780 cells. The format is functional, cell-based.

One may read the IC50 as the concentration that inhibits the measured activity by half. A higher IC50 goes with lower potency. A word on the Cmax: it is the peak of the concentration-time curve. By Tmax is commonly meant the time from dosing to the highest level. For orientation: AUC means concentration integrated over time. Read a high AUC as high exposure. What is called half-life is the time in which the quantity being followed falls by half. A higher half-life goes with slow loss. The term MRT denotes the average time that molecules of a dose stay in the body. A word on the clearance: it is the rate of elimination divided by the concentration. A high value points to a high capacity for elimination. For orientation: bioavailability means dose-corrected exposure relative to a reference, in per cent.

Epidermal growth factor receptor, sequence (P00533 whole entry): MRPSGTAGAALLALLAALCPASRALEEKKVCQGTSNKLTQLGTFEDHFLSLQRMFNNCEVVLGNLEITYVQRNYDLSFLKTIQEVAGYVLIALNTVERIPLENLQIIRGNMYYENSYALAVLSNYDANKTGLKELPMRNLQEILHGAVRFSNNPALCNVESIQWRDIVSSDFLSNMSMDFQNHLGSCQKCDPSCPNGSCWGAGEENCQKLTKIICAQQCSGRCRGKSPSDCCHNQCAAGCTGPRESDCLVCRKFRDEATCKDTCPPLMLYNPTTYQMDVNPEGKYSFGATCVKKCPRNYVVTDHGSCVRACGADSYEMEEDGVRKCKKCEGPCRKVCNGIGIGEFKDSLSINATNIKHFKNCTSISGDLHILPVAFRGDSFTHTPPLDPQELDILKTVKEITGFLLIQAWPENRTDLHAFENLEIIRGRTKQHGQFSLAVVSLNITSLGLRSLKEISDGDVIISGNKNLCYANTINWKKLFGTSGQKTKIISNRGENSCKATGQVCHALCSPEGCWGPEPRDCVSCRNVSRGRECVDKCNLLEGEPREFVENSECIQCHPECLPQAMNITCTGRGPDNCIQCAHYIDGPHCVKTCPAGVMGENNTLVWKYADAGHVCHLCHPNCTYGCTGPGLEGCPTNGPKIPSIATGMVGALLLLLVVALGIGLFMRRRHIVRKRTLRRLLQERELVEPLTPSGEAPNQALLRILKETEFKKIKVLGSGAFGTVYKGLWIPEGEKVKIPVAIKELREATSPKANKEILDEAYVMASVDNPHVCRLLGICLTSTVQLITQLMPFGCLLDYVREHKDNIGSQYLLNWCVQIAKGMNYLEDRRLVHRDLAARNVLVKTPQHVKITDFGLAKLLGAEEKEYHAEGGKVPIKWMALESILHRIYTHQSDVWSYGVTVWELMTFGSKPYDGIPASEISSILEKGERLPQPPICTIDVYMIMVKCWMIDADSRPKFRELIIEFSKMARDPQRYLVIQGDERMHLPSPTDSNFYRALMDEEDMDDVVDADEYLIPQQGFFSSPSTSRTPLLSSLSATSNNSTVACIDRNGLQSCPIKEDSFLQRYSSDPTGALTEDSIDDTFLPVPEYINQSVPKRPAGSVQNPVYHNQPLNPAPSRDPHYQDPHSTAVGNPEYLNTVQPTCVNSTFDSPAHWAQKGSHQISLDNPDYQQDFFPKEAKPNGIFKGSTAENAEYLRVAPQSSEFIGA
Receptor tyrosine-protein kinase erbB-2, sequence (P04626 whole entry): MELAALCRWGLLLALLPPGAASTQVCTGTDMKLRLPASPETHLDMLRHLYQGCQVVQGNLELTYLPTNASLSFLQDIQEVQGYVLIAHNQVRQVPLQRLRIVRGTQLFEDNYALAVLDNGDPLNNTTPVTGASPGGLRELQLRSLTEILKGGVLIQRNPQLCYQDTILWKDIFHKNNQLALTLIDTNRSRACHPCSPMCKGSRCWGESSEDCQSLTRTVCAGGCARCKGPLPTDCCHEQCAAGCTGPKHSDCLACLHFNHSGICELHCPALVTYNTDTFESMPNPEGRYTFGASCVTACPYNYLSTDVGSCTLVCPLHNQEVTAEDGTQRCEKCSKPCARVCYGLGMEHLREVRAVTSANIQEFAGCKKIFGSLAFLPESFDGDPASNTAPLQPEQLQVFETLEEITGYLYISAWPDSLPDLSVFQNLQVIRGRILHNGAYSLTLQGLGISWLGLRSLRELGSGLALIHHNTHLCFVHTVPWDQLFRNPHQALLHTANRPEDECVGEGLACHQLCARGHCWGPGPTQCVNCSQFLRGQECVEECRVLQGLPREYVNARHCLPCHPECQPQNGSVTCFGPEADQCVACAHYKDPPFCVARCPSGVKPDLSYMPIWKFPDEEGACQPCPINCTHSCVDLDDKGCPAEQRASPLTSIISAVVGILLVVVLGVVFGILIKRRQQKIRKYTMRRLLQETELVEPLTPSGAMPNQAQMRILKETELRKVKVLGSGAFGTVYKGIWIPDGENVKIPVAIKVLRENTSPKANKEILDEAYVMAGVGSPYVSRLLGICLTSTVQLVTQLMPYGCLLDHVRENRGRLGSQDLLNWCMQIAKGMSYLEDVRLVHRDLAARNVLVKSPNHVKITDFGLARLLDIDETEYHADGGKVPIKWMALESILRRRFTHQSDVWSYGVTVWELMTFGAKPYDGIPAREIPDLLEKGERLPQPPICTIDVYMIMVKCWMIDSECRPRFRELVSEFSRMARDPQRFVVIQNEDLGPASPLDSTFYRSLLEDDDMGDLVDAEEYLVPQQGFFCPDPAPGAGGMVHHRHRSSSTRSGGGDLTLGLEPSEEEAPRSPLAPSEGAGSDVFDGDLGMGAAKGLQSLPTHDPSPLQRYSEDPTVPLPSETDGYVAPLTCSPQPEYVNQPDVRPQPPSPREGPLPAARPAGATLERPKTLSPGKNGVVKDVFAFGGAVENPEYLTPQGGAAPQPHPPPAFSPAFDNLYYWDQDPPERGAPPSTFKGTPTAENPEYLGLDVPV

As to `CC(=O)N1CCN(Cc2ccn3ncnc(Nc4ccc5c(cnn5Cc5cccc(F)c5)c4)c23)CC1`, in [1], the concentration at 4 h was 4100 nM. For the same compound, the IC50 in [2] was found to be 610 nM; in data set [3], 710 nM.

In the data set with NCI-N87 [4], `CN(CCO)Cc1ccn2ncnc(Nc3ccc4c(cnn4Cc4cccc(F)c4)c3)c12` showed an IC50 of 1200 nM.

As for `Fc1cccc(Cn2ncc3cc(Nc4ncnn5ccc(CN6CCCNCC6)c45)ccc32)c1`, the IC50 with HT-29 is > 3600 nM; in data set [2], 27 nM; in data set [3], 33 nM. Moreover, the metabolic rate in data set [5] came out at 0.05 nmol/min/mg. For the same compound, the concentration at 4 h in data set [1] was found to be 1300 nM. This compound displayed a Cmax in data set [6] of 7950 nM. In data set [7], the time to peak (Tmax) stood at 3 h. Further, the AUC in [8] is 48.9 µM·h. In addition, the half-life in [9] is 3.7 h. For the same compound, the mean residence time (MRT) in data set [10] came out at 4 h. The compound further came in with a clearance in data set [11] of 39 mL/min/kg. For the same compound, the Vd in data set [12] was 9.5 L/kg. The same compound gave a bioavailability in data set [13] of 77%. In the data set with Plasma, the PB was found to be 98.4%. For the same compound, the Solubility in [14] was found to be 9.7 mg/kg; in data set [15], 0.012 mg/kg. Besides, the values for the inhibition in vivo at 90 mg/kg (in the data set with NCI-N87 [16]; in data set [17]) were 97% and 90%, respectively. In data set [18], this compound showed an MTD of 180 mg/kg. Also, in data set [19], the mortality was 12%. For the same compound, the results for the inhibition in vivo at 135 mg/kg in the data set on NCI-N87 [20] and with NCI-N87 [22] were 111% and 78%, respectively. Besides, the inhibition in vivo at 180 mg/kg in the data set on NCI-N87 [21] came to 121%.

On to `COC1CNCCN(Cc2ccn3ncnc(Nc4ccc5c(cnn5Cc5cccc(F)c5)c4)c23)C1` (configuration not stated), for which the IC50 was > 5000 nM in the data set on A2780, 170 nM in data set [2], 3700 nM with NCI-N87 [4] and 190 nM in data set [3].

As for `OC1CCN(Cc2ccn3ncnc(Nc4ccc5c(cnn5Cc5cccc(F)c5)c4)c23)CC1`, in data set [5], the metabolic rate came to 0.29 nmol/min/mg. The compound further had a concentration at 4 h in [1] of 250 nM. The figures for the IC50 (in data set [2]; in the data set on NCI-N87 [4]; in [3]) were 63 nM, 140 nM and 68 nM, respectively.

Regarding `NC(=O)C1CCN(Cc2ccn3ncnc(Nc4ccc5c(cnn5Cc5cccc(F)c5)c4)c23)CC1`, the IC50 in data set [2] was 310 nM; in the data set with NCI-N87 [4] it was 400 nM; in data set [3], 140 nM.

Regarding `Fc1cccc(Cn2ncc3cc(Nc4ncnn5ccc(CN6CCNCC6)c45)ccc32)c1`, the metabolic rate in data set [5] stood at 0 nmol/min/mg. This compound displayed a concentration at 4 h in [1] of 6300 nM. Further, the IC50 was 81 nM in data set [2], 730 nM in the data set with NCI-N87 [4] and 90 nM in data set [3].

Consider `O=C1CN(Cc2ccn3ncnc(Nc4ccc5c(cnn5Cc5cccc(F)c5)c4)c23)CCN1`, for which the IC50 in the data set with HT-29 was > 10000 nM; in [2], 200 nM; in the data set on NCI-N87 [4], 520 nM; in data set [3] it was 350 nM.

Turning to `CN1CCCN(Cc2ccn3ncnc(Nc4ccc5c(cnn5Cc5cccc(F)c5)c4)c23)CC1`, the IC50 in the data set with HT-29 was > 7900 nM; in data set [2], 120 nM; in the data set with NCI-N87 [4], 620 nM; in [3] it was 130 nM. Further, the metabolic rate in data set [5] was 0.21 nmol/min/mg. Further, the concentration at 4 h in [1] stood at 93 nM.

As for `O[C@@H]1CNCCN(Cc2ccn3ncnc(Nc4ccc5c(cnn5Cc5cccc(F)c5)c4)c23)C1`, the IC50 was > 10000 nM with HT-29, 76 nM in data set [2], 950 nM in the data set with NCI-N87 [4] and 200 nM in data set [3]. In data set [5], the metabolic rate was determined as 0.12 nmol/min/mg. Also, the concentration at 4 h in [1] worked out at 880 nM.

In data set [1], `CN1CCN(Cc2ccn3ncnc(Nc4ccc5c(cnn5Cc5cccc(F)c5)c4)c23)CC1` registered a concentration at 4 h of 480 nM. Moreover, the IC50 in [2] was determined as 120 nM; in the data set on NCI-N87 [4], 490 nM; in data set [3], 170 nM.

`Cc1ccn2ncnc(Nc3ccc4c(cnn4Cc4cccc(F)c4)c3)c12`: the IC50 in the data set with HT-29 was > 10000 nM. For the same compound, in data set [5], the metabolic rate was 0.14 nmol/min/mg. The compound also had a concentration at 4 h in data set [1] of 4100 nM.

With `CC1CNCCN(Cc2ccn3ncnc(Nc4ccc5c(cnn5Cc5cccc(F)c5)c4)c23)C1` (configuration not stated), the IC50 in the data set with A2780 was > 2100 nM; in [2], 74 nM; with NCI-N87 [4], 680 nM; in data set [3] it was 130 nM. In addition, in data set [5], the metabolic rate is 0 nmol/min/mg.

For `CS(=O)(=O)N1CCCN(Cc2ccn3ncnc(Nc4ccc5c(cnn5Cc5cccc(F)c5)c4)c23)CC1`, the IC50 in the data set with HT-29 is > 10000 nM; in data set [2] it was 120 nM; with NCI-N87 [4], 330 nM; in data set [3], 210 nM.

Turning to `Fc1cccc(Cn2ncc3cc(Nc4ncnn5ccc(CN6CCCC6)c45)ccc32)c1`, the IC50 in data set [2] was found to be 360 nM; in [3], 500 nM.

In the case of `O=C(O)C1CCN(Cc2ccn3ncnc(Nc4ccc5c(cnn5Cc5cccc(F)c5)c4)c23)CC1`, the IC50 in the data set on HT-29 is > 10000 nM; in data set [2], 110 nM; in the data set with NCI-N87 [4], > 5000 nM. Besides, the metabolic rate in data set [5] worked out at 0.23 nmol/min/mg. The same compound had a concentration at 4 h in [1] of 600 nM.

With `O=C1CNCCN(Cc2ccn3ncnc(Nc4ccc5c(cnn5Cc5cccc(F)c5)c4)c23)C1`, the IC50 in the data set on HT-29 was > 10000 nM; in [2] it was 39 nM; with NCI-N87 [4], 650 nM; in data set [3], 780 nM.

`OCCNCc1ccn2ncnc(Nc3ccc4c(cnn4Cc4cccc(F)c4)c3)c12`: the IC50 was determined as 47 nM in data set [2], 1950 nM with NCI-N87 [4] and 45 nM in data set [3].

In the case of `COC(=O)C1CCN(Cc2ccn3ncnc(Nc4ccc5c(cnn5Cc5cccc(F)c5)c4)c23)CC1`, the IC50 was > 10000 nM in the data set with HT-29, > 1000 nM in data set [2], > 5000 nM in the data set on NCI-N87 [4] and 1000 nM in data set [3]. In [1], this compound yielded a concentration at 4 h of 27 nM.

Consider `O[C@H]1CNCCN(Cc2ccn3ncnc(Nc4ccc5c(cnn5Cc5cccc(F)c5)c4)c23)C1`, for which the IC50 was > 10000 nM with HT-29, 16 nM in data set [2], 160 nM in the data set on NCI-N87 [4] and 26 nM in data set [3]. Besides, in data set [5], the metabolic rate came to 0.12 nmol/min/mg. In addition, the concentration at 4 h in data set [1] came out at 1510 nM.

As for `O=C1CCN(Cc2ccn3ncnc(Nc4ccc5c(cnn5Cc5cccc(F)c5)c4)c23)CCN1`, the IC50 in the data set with HT-29 was > 10000 nM; in data set [2], 750 nM; in the data set on NCI-N87 [4] it was 200 nM; in [3] it was 240 nM. Moreover, in data set [5], the metabolic rate was determined as 0.27 nmol/min/mg. In [1], this compound came in with a concentration at 4 h of 44 nM.

The values above are taken from ChEMBL document CHEMBL1147910, “Novel C-5 aminomethyl pyrrolotriazine dual inhibitors of EGFR and HER2 protein tyrosine kinases” (Bioorg Med Chem Lett, 2007).
